The results in this text go back to PMC7818921, “Synthesis and biological evaluation of heterocyclic 1,2,4-triazole scaffolds as promising pharmacological agents” (BMC Chemistry, 2021).

SMILES strings stand for the structures. Values after ≈ are worked out from the molar mass of the structure shown.

One data set deals with Jack Bean Urease (Canavalia ensiformis, UniProt P07374). Briefly: biochemical.
Chain of Jack Bean Urease (P07374 whole entry, looked up): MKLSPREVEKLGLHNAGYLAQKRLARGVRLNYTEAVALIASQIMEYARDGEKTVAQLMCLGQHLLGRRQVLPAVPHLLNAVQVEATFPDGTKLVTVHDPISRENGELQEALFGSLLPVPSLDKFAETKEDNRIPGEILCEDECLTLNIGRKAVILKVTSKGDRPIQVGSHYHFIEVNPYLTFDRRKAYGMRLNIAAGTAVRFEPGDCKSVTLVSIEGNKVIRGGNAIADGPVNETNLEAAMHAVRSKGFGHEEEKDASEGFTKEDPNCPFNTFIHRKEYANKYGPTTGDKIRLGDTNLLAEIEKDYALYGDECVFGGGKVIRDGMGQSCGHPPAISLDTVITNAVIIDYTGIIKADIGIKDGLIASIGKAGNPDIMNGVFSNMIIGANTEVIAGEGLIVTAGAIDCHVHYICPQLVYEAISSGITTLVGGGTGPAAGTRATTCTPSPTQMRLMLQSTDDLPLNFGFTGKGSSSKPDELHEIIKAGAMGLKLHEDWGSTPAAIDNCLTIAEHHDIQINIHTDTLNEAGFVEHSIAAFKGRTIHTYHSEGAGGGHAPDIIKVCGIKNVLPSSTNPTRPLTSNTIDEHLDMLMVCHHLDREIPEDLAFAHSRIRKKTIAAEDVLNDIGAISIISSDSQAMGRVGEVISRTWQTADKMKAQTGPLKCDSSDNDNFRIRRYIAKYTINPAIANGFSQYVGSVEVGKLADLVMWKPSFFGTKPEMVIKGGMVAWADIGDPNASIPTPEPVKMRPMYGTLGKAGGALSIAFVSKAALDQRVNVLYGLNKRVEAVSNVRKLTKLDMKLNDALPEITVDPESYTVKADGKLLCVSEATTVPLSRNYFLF
Details: not given
As to the method: Urease inhibitory potential for each synthesisized compound (T1–T20) was evaluated using Jack Bean Urease by Indophenol method (Table 5, Figs. 9, 10, 11). 250 µl of jack bean urease (4U) was mixed with 250 µl of different synthesized test compounds and standard of different concentrations [dissolved in DMSO/H2O mixture (1:1 v/v)]. The mixture was pre-incubated for 1 h at 37 °C in test tubes. 2 ml of 100 mM phosphate buffer (pH 6.8) containing 500 mM urea and 0.002% phenol red as an indicator were added in sample test tubes after pre incubation and again incubated at room temperature. Absorbance of reaction mixture was recorded by ELISA at 570 nm. Ammonium carbonate increased the pH of phosphate buffer from 6.8 to 7.7 which was produced from urea by urease enzyme and the end peak was measured by the colour of phenol red indicator [16].
The percentage inhibition of urease enzyme was calculated by using following formula: I%=Acontrol-Asample/Acontrol×100,
where Acontrol is the absorbance of the control; Asample is the absorbance of the test compound.
By IC50 is commonly meant the concentration at which inhibition is half-maximal. A high value points to weaker potency in that assay. The term inhibition denotes how much of the control response was suppressed. A high value points to a strong effect. As to `CCCCCCCCCCCCCCCc1nnc(S)n1N=Cc1ccc(Br)cc1` [Compound T14], the midpoint of inhibition, the IC50, lay at 136 µM; the inhibition at 25 µg/mL was 41.7%; the inhibition at 50 µg/mL is 46.2%; the inhibition at 75 µg/mL was found to be 50.5%. The same molecule returned an inhibition at 100 µg/mL of 57.8%.

The molecule `CCCCCCCCCCCCCCCc1nnc(S)n1N=Cc1ccccc1[N+](=O)[O-]` [Compound T15] had an IC50 of 133 µM, an inhibition at 25 µg/mL of 29%, an inhibition at 50 µg/mL of 37.1% and an inhibition at 75 µg/mL of 61.8%. Testing at 100 µg/mL gave an inhibition of 73.1%.

As for `CCCCCCCCCCCCCCCc1nnc(S)n1N=Cc1cccc([N+](=O)[O-])c1` [Compound T16], the concentration for half-maximal inhibition (IC50) is 115 µM, at 25 µg/mL the inhibition was 45.8%, the inhibition at 50 µg/mL is 49.1% and the inhibition at 75 µg/mL was 53.9%. In addition, testing at 100 µg/mL gave an inhibition of 59.1%.

System in another data set: not given
Experiment: not given
Details: not given
As usually defined, the melting point is the temperature of the solid-liquid transition. As to `CCCCCCCCCCCCCCCc1nnc(S)n1N=Cc1ccc(Br)cc1` [Compound T14], the melting point was in the range of 193 to 196 °C.

`CCCCCCCCCCCCCCCc1nnc(S)n1N=Cc1ccccc1[N+](=O)[O-]` [Compound T15] yielded a melting point of 195 to 198 °C.

The molecule `CCCCCCCCCCCCCCCc1nnc(S)n1N=Cc1cccc([N+](=O)[O-])c1` [Compound T16] came in with a melting point of 199 to 202 °C.

The next data set concerns HCT116 (human colon cancer cells). The experiment in a line: Anticancer evaluation, SRB assay. The class given is cell-based. Conditions: Homo sapiens, HCT-116; HCT116, 72 h, SRB; mean of at least triplicates. As to the method: HCT116 (human colon cancer cells) were seeded at 2500 cells/well (96 well plate), allowed to attach overnight, exposed to the respective compounds for 72 h and subjected to SRB assay (570 nm). Data represent mean IC50 of at least triplicates. The compounds were all dissolved in DMSO as stock of 100 mg/ml. […] The highest concentration of each compound tested (100 μg/ml) contained only 0.1% DMSO.
On the technique in general: The SRB assay estimates cell density from bound dye.
`CCCCCCCCCCCCCCCc1nnc(S)n1N=Cc1ccc(Br)cc1` [Compound T14] showed a concentration for half-maximal inhibition (IC50) of 128 µM.

In the case of `CCCCCCCCCCCCCCCc1nnc(S)n1N=Cc1ccccc1[N+](=O)[O-]` [Compound T15], the IC50 is > 218 µM.

`CCCCCCCCCCCCCCCc1nnc(S)n1N=Cc1cccc([N+](=O)[O-])c1` [Compound T16] registered a 50% inhibitory concentration (IC50) of 169 µM.

System in another data set: not listed separately
Briefly: DPPH free radical scavenging activity. The following applies: DPPH antioxidant. As to the method:
In the DPPH free radical scavenging activity, compounds (T1–T20) were evaluated for their free radical scavenging activity with ascorbic acid as standard compound. The scavenging effect increased with the increasing concentrations of sample compounds. DPPH is relatively stable nitrogen centered free radical that easily accepts an electron or hydrogen radical to become a stable diamagnetic molecule. DPPH radicals react with suitable reducing agents as a result of which the electrons become paired off forming the corresponding hydrazine. The solution therefore loses colour stoichometrically depending on the number of electrons taken up. […] The sample solutions were incubated for 30 min at room temperature in dark place and after then absorbance was recorded against the blank solution at 517 nm. The relative percent of DPPH scavenging activity was calculated according to the following equation: I%=Acontrol-Asample/Acontrol×100,
where Acontrol is the absorbance of the control, Asample is the absorbance of the test compound.
(DPPH is a stable violet radical that fades when it is reduced.)
In the case of `CCCCCCCCCCCCCCCc1nnc(S)n1N=Cc1ccc(Br)cc1` [Compound T14], the half-inhibitory concentration (IC50) amounted to 37.52 µg/mL (≈ 76 µM).

For the molecule `CCCCCCCCCCCCCCCc1nnc(S)n1N=Cc1ccccc1[N+](=O)[O-]` [Compound T15], the IC50 was found to be 47.99 µg/mL (≈ 104 µM). This IC50 and that of the molecule before are within 1.5-fold of each other.

With `CCCCCCCCCCCCCCCc1nnc(S)n1N=Cc1cccc([N+](=O)[O-])c1` [Compound T16], the IC50 stood at 41.30 µg/mL (≈ 89.8 µM).

The data set is the same for the next values; noted with them: DPPH, 25 µg/ml.
As a reminder, the % inhibition is how much of the control response was suppressed. High values mean a response far below the control, low ones a response near the control. Regarding `CCCCCCCCCCCCCCCc1nnc(S)n1N=Cc1ccc(Br)cc1` [Compound T14], the “% inhibition” value is 37.56%.

`CCCCCCCCCCCCCCCc1nnc(S)n1N=Cc1ccccc1[N+](=O)[O-]` [Compound T15]: the “% inhibition” value was 38.56%.

With `CCCCCCCCCCCCCCCc1nnc(S)n1N=Cc1cccc([N+](=O)[O-])c1` [Compound T16], the “% inhibition” value was found to be 43.65%.

Still in this data set, the particulars now being: DPPH, 50 µg/ml.
Consider `CCCCCCCCCCCCCCCc1nnc(S)n1N=Cc1ccc(Br)cc1` [Compound T14], for which the “% inhibition” value was 60.68%.

Consider `CCCCCCCCCCCCCCCc1nnc(S)n1N=Cc1ccccc1[N+](=O)[O-]` [Compound T15], for which the “% inhibition” value amounted to 50.64%.

In the case of `CCCCCCCCCCCCCCCc1nnc(S)n1N=Cc1cccc([N+](=O)[O-])c1` [Compound T16], the “% inhibition” value worked out at 51.45%.

Staying with this data set, now noted: DPPH, 75 µg/ml.
In the case of `CCCCCCCCCCCCCCCc1nnc(S)n1N=Cc1ccc(Br)cc1` [Compound T14], the “% inhibition” value is recorded as 85.79%.

`CCCCCCCCCCCCCCCc1nnc(S)n1N=Cc1ccccc1[N+](=O)[O-]` [Compound T15]: the “% inhibition” value amounted to 62.16%.

For the molecule `CCCCCCCCCCCCCCCc1nnc(S)n1N=Cc1cccc([N+](=O)[O-])c1` [Compound T16], the “% inhibition” value worked out at 67.26%.

Still in this data set, the particulars now being: DPPH, 100 µg/ml.
`CCCCCCCCCCCCCCCc1nnc(S)n1N=Cc1ccc(Br)cc1` [Compound T14]: the “% inhibition” value is reported as 95.61%.

On to `CCCCCCCCCCCCCCCc1nnc(S)n1N=Cc1ccccc1[N+](=O)[O-]` [Compound T15], for which the “% inhibition” value was determined as 80.56%.

With `CCCCCCCCCCCCCCCc1nnc(S)n1N=Cc1cccc([N+](=O)[O-])c1` [Compound T16], the “% inhibition” value is 81.76%.

A further data set relates to Bacillus subtilis. The experiment in a line: In vitro antimicrobial screening, tube dilution method. The class given is cell-based. The following applies: Bacillus subtilis; B. substilis, Gram +ve; nutrient broth, 37 ± 1 °C, 24 h; read-out: Minimum inhibitory concentration. As to the method:
(§1) The in vitro antimicrobial screening of the synthesized 1,2,4-triazole derivatives (T1–T20) in μM was determined against Gram-positive Bacillus subtilis, […], Gram-negative Escherichia coli bacterium and fungal strains Candida albicans and Aspergillus niger by tube dilution method using ciprofloxacin, amoxycillin (antibacterial) and fluconazole (antifungal) as reference drugs. DMSO was used to dissolve the reference and sample derivatives (T1–T20). Dilutions were prepared in nutrient broth (I.P.) for bacterial (incubated at 37 ± 1 °C for 24 h) and Sabouraud dextrose broth (I.P.) for fungal species (37 ± 1 °C for 48 h for C. albicans) and (25 ± 1 °C for 7 days for A. niger) (Table 3, Figs. 4 and 5).
As to `CCCCCCCCCCCCCCCc1nnc(S)n1N=Cc1ccc(Br)cc1` [Compound T14], the MIC was found to be 50.6 µM (≈ 25 µg/mL).

On to `CCCCCCCCCCCCCCCc1nnc(S)n1N=Cc1ccccc1[N+](=O)[O-]` [Compound T15], for which the MIC was determined as 54.3 µM (≈ 25 µg/mL).

Regarding `CCCCCCCCCCCCCCCc1nnc(S)n1N=Cc1cccc([N+](=O)[O-])c1` [Compound T16], the MIC is 109 µM (≈ 50 µg/mL).

Another data set has as its system Escherichia coli. Described as above. The data set is classed as cell-based. The following applies: Escherichia coli; E. coli, Gram −ve; nutrient broth, 37 ± 1 °C, 24 h; read-out: Minimum inhibitory concentration. As to the method:
as §1
Take `CCCCCCCCCCCCCCCc1nnc(S)n1N=Cc1ccc(Br)cc1` [Compound T14]: the MIC came out at 101 µM (≈ 50 µg/mL).

Consider `CCCCCCCCCCCCCCCc1nnc(S)n1N=Cc1ccccc1[N+](=O)[O-]` [Compound T15], for which the MIC turned out to be 218 µM (≈ 100 µg/mL).

As for `CCCCCCCCCCCCCCCc1nnc(S)n1N=Cc1cccc([N+](=O)[O-])c1` [Compound T16], the MIC was 218 µM (≈ 100 µg/mL).

In another data set the test system is Pseudomonas aeruginosa. Described as above. The following applies: Pseudomonas aeruginosa; P. aeruginosa, Gram −ve; nutrient broth, 37 ± 1 °C, 24 h; read-out: Minimum inhibitory concentration. The class given is cell-based. As to the method: as §1
In the case of `CCCCCCCCCCCCCCCc1nnc(S)n1N=Cc1ccc(Br)cc1` [Compound T14], the MIC came out at 101 µM (≈ 50 µg/mL).

On to `CCCCCCCCCCCCCCCc1nnc(S)n1N=Cc1ccccc1[N+](=O)[O-]` [Compound T15], for which the MIC amounted to 109 µM (≈ 50 µg/mL).

`CCCCCCCCCCCCCCCc1nnc(S)n1N=Cc1cccc([N+](=O)[O-])c1` [Compound T16]: the MIC came out at 109 µM (≈ 50 µg/mL).

The next data set has as its system Candida albicans. The experiment in a line: In vitro antifungal screening, tube dilution method. Conditions: Candida albicans; C. albican; Sabouraud dextrose broth, 37 ± 1 °C, 48 h; read-out: Minimum inhibitory concentration. The class given is cell-based. As to the method:
as §1
Turning to `CCCCCCCCCCCCCCCc1nnc(S)n1N=Cc1ccc(Br)cc1` [Compound T14], the MIC worked out at 203 µM (≈ 100 µg/mL).

Take `CCCCCCCCCCCCCCCc1nnc(S)n1N=Cc1ccccc1[N+](=O)[O-]` [Compound T15]: the MIC is 218 µM (≈ 100 µg/mL).

With `CCCCCCCCCCCCCCCc1nnc(S)n1N=Cc1cccc([N+](=O)[O-])c1` [Compound T16], the MIC turned out to be 218 µM (≈ 100 µg/mL).

Another data set relates to Aspergillus niger. The description is as above. The class given is cell-based. Conditions: Aspergillus niger, 168 h; A. niger; Sabouraud dextrose broth, 25 ± 1 °C, 7 days; read-out: Minimum inhibitory concentration. As to the method: as §1
Consider `CCCCCCCCCCCCCCCc1nnc(S)n1N=Cc1ccc(Br)cc1` [Compound T14], for which the MIC is 101 µM (≈ 50 µg/mL).

As to `CCCCCCCCCCCCCCCc1nnc(S)n1N=Cc1ccccc1[N+](=O)[O-]` [Compound T15], the MIC was 54.3 µM (≈ 25 µg/mL).

`CCCCCCCCCCCCCCCc1nnc(S)n1N=Cc1cccc([N+](=O)[O-])c1` [Compound T16]: the MIC stood at 218 µM (≈ 100 µg/mL).
